{"source": "patent US9688637B2", "about": "“3-amidobenzamides and uses thereof for increasing cellular levels of A3G and other A3 family members” (Northwestern University, priority 2014, dated 2017)", "key": {"[1]": {"test_system": "Wild-type HIV-1", "experiment": "A3G-mediated restriction of wild-type HIV-1; virus from 293T stably expressing A3G, TZM-bl readout", "type": "cell-based", "conditions": "Human immunodeficiency virus 1, HEK-293T, read-out: A3G-mediated Restriction by Compounds on Wild-type HIV-1 (% of HIV replication relative to DMSO treated Control)", "description": "(§1) To test the effect of compounds shown to boost A3G-Luc levels in our screening systems on inhibition of wild-type HIV-1 replication by A3G or A3F, 293T cell lines stably expressing A3G or A3F were plated (750,000 cells per well in 6-well plate). At 24 hrs post plating, 1.5 μg of a wild-type (Vif-positive) HIV-1 proviral vector, NL4.3, was transfected into the 293T stable cell lines expressing either A3G or A3F. At 4 hrs post transfection, either DMSO as a control or an individual compound from series described below was added into the culture medium at a 10 μM concentration. At 1 day post transfection, supernatant fluids containing viral particles were filtered through […] filter to remove cellular debris. To test the effect of compound on HIV-1 replication, TZM-bl indicator cells were plated at a density of 10,000 cells/well in a 96 well culture plate 24 hrs prior to infection. TZM-bl indicator cells express luciferase gene under the control of HIV LTR promoter and are routinely used to measure HIV-1 replication capability. On the day of infection, the culture medium was removed and the cells inoculated with equal amount of HIV-1 particles in triplicate with 100 μl of viral supernatants in culture medium containing 20 μg/ml DEAE-dextran. After 24 hrs of incubation, culture medium was removed from each well and replaced with 100 μl of Britelite Plus luciferase assay substrate. Following 5 min. of incubation at room temperature, 75 μl of each cell lysate was transferred to a 96-well OptiPlate 96 and luminescence was measured in a VICTOR X2 Multilabel Reader as described above. Relative infectivity was calculated by plotting luciferase activity from viral particle from DMSO treated A3G or A3F cell lines as 100%. We only tested effect A3F- or A3G mediated restriction of HIV-1 replication by compounds boosting luciferase activity by more than 160% compared to DMSO control sample."}, "[2]": {"test_system": "Wild-type HIV-1", "experiment": "A3F-mediated restriction of wild-type HIV-1; virus from 293T stably expressing A3F, TZM-bl readout", "type": "cell-based", "conditions": "Human immunodeficiency virus 1, HEK-293T, read-out: A3F-mediated Restriction by Compounds on Wild-type HIV-1 (% of HIV replication relative to DMSO treated Control)", "description": "as §1"}, "[3]": {"test_system": "BC-1", "experiment": "BC-1 primary effusion lymphoma cell proliferation", "type": "cell-based", "conditions": "primary effusion lymphoma (PEL) cell line (FIG. 10)", "excerpt": "FIG. 10. A primary effusion lymphoma (PEL) cell line (BC-1, infected with both Kaposi's sarcoma herpesvirus and Epstein Barr Virus) is also killed by the listed compounds."}, "[4]": {"test_system": "HEK293", "experiment": "Cancer cell death, cell numbers vs DMSO", "type": "cell-based, human", "conditions": "6 μM, 16 days; embryonic kidney cell line lacking A3B, wild-type functional p53", "excerpt": "To test the effect of the compounds described below on cancer cell death, cell lines derived from different types of cancer were studied in vitro. MCF10A, MCF7, T47D, MDA-MB-157 and MDA-MB-231 are breast cancer cell lines. NHPrE, BHPrE, RWPE1, DU145, and PC3 cells are prostate cell lines. HeLa is cervical cancer cell line. HEK293 is human embryonic kidney cell line lacking A3B expression. There are differences among these cancer cell lines in p53 expression (44-46). MCF10A, MCF7, NHPrE, BHPrE and HEK293 cells have wild-type and functional p53. RWPE1 and HeLa cells have wild-type p53 but the p53 protein in these cell line is not functional because of effects of human papilloma virus E6 protein. T47D, MDA-MB-231, and DU145 cell lines have mutant p53, while MDA-MB-157 and PC3 cells have no p53 expression. 25,000 cells per well were plated in 6 well plates. In the case of HEK293 cells. 500,000 cells per well in 6-well plates were used instead. After 24 hrs, culture medium was replaced with new medium containing either DMSO as control or one of the compounds described below (6 μM per well concentration). After 8 days incubation with compounds, cell numbers were counted from each well and plotted with number of cells from DMSO treated sample as 100%. We performed the experiments at least twice. HEK293, MCF7 and T47D cells they were maintained for 16 days with compounds instead of 8 days."}, "[5]": {"test_system": "293T cells", "experiment": "Cellular cytotoxicity by counting cells after 48 hrs with compound vs DMSO", "type": "cell-based", "conditions": "concentration at which cell death was seen; 48 hrs", "description": "To screen compounds that can boost A3G levels, 293T cells (25,000 cells per well in 96-well plate) stably expressing A3G-Luc protein or A3G-Luc/Vif proteins were plated. After 24 hrs post plating culture medium was replaced with 100 μl of new medium containing either DMSO as a control or various compounds (10 μM concentration). After 48 hrs of incubation with compounds culture medium was removed from each well and replaced with 100 μl of Britelite Plus luciferase assay substrate (PerkinElmer). Following 5 min. of incubation at room temperature, 75 μl of each cell lysate was transferred to a 96-well OptiPlate 96 (PerkinElmer) and luminescence was measured in a VICTOR X2 Multilabel Reader (PerkinElmer). Relative activity of compounds for their boosting capability A3G-Luc activity was calculated by plotting DMSO-treated A3G-Luc or A3G-Luc/Vif cells as 100%. Cellular cytotoxicity was measured by counting number of cells after 48 hrs of incubation with compounds compared to DMSO treated cells."}, "[6]": {"target": "T1, mutant Y124A A3G (Homo sapiens, UniProt Q9HC16, Y124A)", "T1 construct": "expressed in transfected cells; host or cells: 293T, transient transfection", "T1 sequence (Q9HC16 whole entry Y124A)": "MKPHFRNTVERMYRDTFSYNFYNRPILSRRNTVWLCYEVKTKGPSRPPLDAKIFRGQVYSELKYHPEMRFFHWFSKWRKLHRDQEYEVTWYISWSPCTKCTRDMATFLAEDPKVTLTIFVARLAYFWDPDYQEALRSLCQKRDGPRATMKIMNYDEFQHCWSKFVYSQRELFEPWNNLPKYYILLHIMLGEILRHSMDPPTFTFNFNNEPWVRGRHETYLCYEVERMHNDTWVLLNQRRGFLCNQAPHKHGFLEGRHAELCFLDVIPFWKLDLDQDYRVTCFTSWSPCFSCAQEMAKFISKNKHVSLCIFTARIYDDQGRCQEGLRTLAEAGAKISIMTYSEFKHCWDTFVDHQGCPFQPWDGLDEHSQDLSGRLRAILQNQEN", "experiment": "Steady state A3 protein level by immunoblot in transiently transfected 293T cells", "type": "cell-based", "conditions": "293T transiently transfected, immunoblot (FIG. 7)", "description": "(§2) FIG. 7. 293T cells were transiently transfected with 400 ng of expression vectors for wild type A3G (A3G), a mutant A3G (A3G Y124A), and A3F (A3F) to test effect of NU52 treatment on steady state levels of the respective A3 protein, as detected by immunoblotting with respective antibodies, with GAPDH as loading control."}, "[7]": {"target": "T2, wild type A3F (Homo sapiens, UniProt Q8IUX4)", "T2 construct": "expressed in transfected cells; host or cells: 293T, transient transfection", "experiment": "Steady state A3 protein level by immunoblot in transiently transfected 293T cells", "type": "cell-based", "conditions": "293T transiently transfected, immunoblot (FIG. 7)", "description": "as §2"}, "[8]": {"target": "T3, wild type A3G (Homo sapiens, UniProt Q9HC16)", "T3 construct": "expressed in transfected cells; host or cells: 293T, transient transfection", "experiment": "Steady state A3 protein level by immunoblot in transiently transfected 293T cells", "type": "cell-based", "conditions": "293T transiently transfected, immunoblot (FIG. 7)", "description": "as §2"}, "[9]": {"test_system": "HIV NL4-3", "experiment": "Infectivity of virions from 293T co-transfected with NL4-3 and A3G, TZM-bl cells", "type": "cell-based, HIV-1", "conditions": "co-transfection of 293T with HIV NL4-3 and A3G (FIG. 8)", "description": "(§3) FIG. 8. 293T cells were co-transfected with […] of NL4.3 plasmid DNA and 400 ng of either control or A3F/G DNAs, with or without NU52. Infectivity of equal amounts of resulting viruses (normalized by HIV-1 p24 antigen) were measured using TZM-bl cells. NU-52 treatment of producer cell reduced infectivity of virus produced from those cells."}, "[10]": {"test_system": "HIV NL4-3", "experiment": "Infectivity of virions from 293T co-transfected with NL4-3 and A3F, TZM-bl cells", "type": "cell-based, HIV-1", "conditions": "co-transfection of 293T with HIV NL4-3 and A3F (FIG. 8)", "description": "as §3"}}, "data": [{"smiles": "COc1ccc(C(=O)Nc2ccc(Cl)c(Cl)c2)cc1NC(=O)CC1CC1", "note": "[NU-466]", "values": [{"measurement": "activity at 10 µM", "setting": "[1]", "value": 72, "unit": "%"}, {"measurement": "activity at 10 µM", "setting": "[2]", "value": 59, "unit": "%"}, {"measurement": "BC-1 cell proliferation", "setting": "[3]", "value": "inhibit BC-1 cell proliferation"}, {"measurement": "cell killing (cell numbers vs DMSO)", "setting": "[4]", "value": "not killed"}]}, {"smiles": "COc1ccc(C(=O)Nc2ccc(Cl)c(Cl)c2)cc1NC(=O)C1CCC1", "note": "[NU-302]", "values": [{"measurement": "activity at 10 µM", "setting": "[1]", "value": 60, "unit": "%"}, {"measurement": "activity at 10 µM", "setting": "[2]", "value": 58, "unit": "%"}, {"measurement": "BC-1 cell proliferation", "setting": "[3]", "value": "inhibit BC-1 cell proliferation"}, {"measurement": "cell killing (cell numbers vs DMSO)", "setting": "[4]", "value": "not killed"}]}, {"smiles": "COc1ccc(C(=O)Nc2ccc(Cl)c(Cl)c2)cc1NC(=O)C(C)C", "note": "[NU-52]", "values": [{"measurement": "Cytotoxicity: Cell Death at", "setting": "[5]", "value": "Cell Death at 30 μM"}, {"measurement": "activity at 10 µM", "setting": "[1]", "value": 57, "unit": "%"}, {"measurement": "expression of mutant Y124A A3G", "setting": "[6]", "value": "increased"}, {"measurement": "expression of wild type A3F", "setting": "[7]", "value": "increased"}, {"measurement": "expression of wild type A3G", "setting": "[8]", "value": "increased"}, {"measurement": "activity at 10 µM", "setting": "[2]", "value": 57, "unit": "%"}, {"measurement": "infectivity of virions", "setting": "[9]", "value": "decreased infectivity"}, {"measurement": "BC-1 cell proliferation", "setting": "[3]", "value": "inhibit BC-1 cell proliferation"}, {"measurement": "infectivity of virions", "setting": "[10]", "value": "decreased infectivity"}, {"measurement": "cell killing (cell numbers vs DMSO)", "setting": "[4]", "value": "not killed"}]}]}
